Laboratory results as given in ChEMBL document CHEMBL1201862, “PubChem BioAssay data set” (2004).
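Interpolation was linear, between the two tested concentrations surrounding the appropriate level; five concentrations were tested over 48 hours in 96-well plates. GI50: concentration for 50% inhibition of growth.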 Activity calls are given as the source filed them. Rule as the data show it: active = GI50 up to about 1.1 µM and inactive = higher.

Columns and labels:
Assay in all cases: NCI-60 cell line screen, 48 h
HCT-116 = tested on: HCT-116
SK-MEL-5 = tested on: SK-MEL-5
SNB-75 = tested on: SNB-75
KM12 = tested on: KM12
RXF 393 = tested on: RXF 393
HCC 2998 = tested on: HCC 2998
Malme-3M = tested on: Malme-3M
UACC-62 = tested on: UACC-62
UACC-257 = tested on: UACC-257
HOP-92 = tested on: HOP-92
SF-268 = tested on: SF-268
CAKI-1 = tested on: CAKI-1
COLO 205 = tested on: COLO 205
LOX IMVI = tested on: LOX IMVI
ACHN = tested on: ACHN
NCI-H226 = tested on: NCI-H226
SR = tested on: SR

Row | SMILES | GI50 (HCT-116) | GI50 (SK-MEL-5) | GI50 (SNB-75) | GI50 (KM12) | GI50 (RXF 393) | GI50 (HCC 2998) | GI50 (Malme-3M) | GI50 (UACC-62) | GI50 (UACC-257) | GI50 (HOP-92) | GI50 (SF-268) | GI50 (CAKI-1) | GI50 (COLO 205) | GI50 (LOX IMVI) | GI50 (ACHN) | GI50 (NCI-H226) | GI50 (SR)
1 | O=S(=O)(O)C(F)(F)C(F)(F)C(F)(F)C(F)(F)F | > 100 µM (inactive) | > 100 µM (inactive) | > 100 µM (inactive) | > 100 µM (inactive) | > 100 µM (inactive) | > 100 µM (inactive) | > 100 µM (inactive) | > 100 µM (inactive) | > 100 µM (inactive) | 9.51 µM (inactive) | > 100 µM (inactive) | > 100 µM (inactive) | > 100 µM (inactive) | > 100 µM (inactive) | > 100 µM (inactive) |  | 
2 | c1ccc(SC(CCCCOC2CCCCO2)Sc2ccccc2)cc1 (stereo unspecified) | 47.5 µM (inactive) | 30.5 µM (inactive) | 49.8 µM (inactive) | > 100 µM (inactive) | 38.8 µM (inactive) | > 100 µM (inactive) | > 100 µM (inactive) | > 100 µM (inactive) | 63.8 µM (inactive) | 11.8 µM (inactive) | 44.5 µM (inactive) | 92.7 µM (inactive) | 94.6 µM (inactive) | 65.5 µM (inactive) | 59.7 µM (inactive) |  | 
3 | O=C(NC(=O)c1cn(CCN2CCN(C(=O)NCCCCCCNC(=O)N3CCN(CCn4cc(C(=O)NC(=O)OCc5ccccc5)c(=O)[nH]c4=O)CC3)CC2)c(=O)[nH]c1=O)OCc1ccccc1 | > 100 µM (inactive) | > 100 µM (inactive) | 60.8 µM (inactive) |  | > 100 µM (inactive) |  | > 100 µM (inactive) | > 100 µM (inactive) | > 100 µM (inactive) | > 100 µM (inactive) |  | > 100 µM (inactive) | > 100 µM (inactive) | > 100 µM (inactive) | > 100 µM (inactive) |  | 
4 | COc1ccc2c3c([nH]c2c1[N+](=O)[O-])C(C)N(Cc1ccc([N+](=O)[O-])cc1)CC3 (stereo unspecified) |  |  |  | 14.2 µM (inactive) | 10.9 µM (inactive) | 17.2 µM (inactive) |  | 15.8 µM (inactive) | 12.9 µM (inactive) |  | 2.48 µM (inactive) | 3.89 µM (inactive) | 14 µM (inactive) | 4.74 µM (inactive) | 18.1 µM (inactive) | 18.1 µM (inactive) | 5.5 µM (inactive)
5 | CCOC(=O)NC(=O)c1cn(CCCCCCCCCCC(=O)N2CCN(CCn3cc(C(=O)NC(=O)OCC)c(=O)[nH]c3=O)CC2)c(=O)[nH]c1=O | > 100 µM (inactive) | > 100 µM (inactive) | > 100 µM (inactive) |  | > 100 µM (inactive) | > 100 µM (inactive) |  | > 100 µM (inactive) | > 100 µM (inactive) | > 100 µM (inactive) |  | > 100 µM (inactive) | > 100 µM (inactive) | > 100 µM (inactive) | > 100 µM (inactive) |  | 
6 | CCOC(=O)C1=C(OC(OCC)C(CC)[Se]c2ccccc2)CCCC1 (stereo unspecified) | 17.5 µM (inactive) | 12.6 µM (inactive) | 16.9 µM (inactive) | > 100 µM (inactive) | 20.5 µM (inactive) | 13.4 µM (inactive) | 16.9 µM (inactive) | 19.8 µM (inactive) | 35 µM (inactive) | 21.2 µM (inactive) | 19 µM (inactive) | 37.3 µM (inactive) | 34.7 µM (inactive) | 4.54 µM (inactive) | 28.1 µM (inactive) | 21.8 µM (inactive) | 
7 | CC1=C(c2ccccc2)CON(c2ccccc2)C1 | 24.7 µM (inactive) | 20.5 µM (inactive) |  | 22.7 µM (inactive) | 16.9 µM (inactive) | 67.5 µM (inactive) | 56.4 µM (inactive) | 38.5 µM (inactive) | 40.8 µM (inactive) |  | 39.9 µM (inactive) | 39.6 µM (inactive) | 33.1 µM (inactive) | 30.8 µM (inactive) | 30.2 µM (inactive) | 85.7 µM (inactive) | 31.3 µM (inactive)
8 | NCCCNC(=O)c1csc(NC(=O)c2csc(NC(=O)CCCN)n2)n1 | > 100 µM (inactive) | > 100 µM (inactive) | > 100 µM (inactive) | > 100 µM (inactive) |  | > 100 µM (inactive) | > 100 µM (inactive) | > 100 µM (inactive) | > 100 µM (inactive) | > 100 µM (inactive) | > 100 µM (inactive) | > 100 µM (inactive) | > 100 µM (inactive) |  | > 100 µM (inactive) | > 100 µM (inactive) | > 100 µM (inactive)
9 | CCOC(=O)CNC(=O)OCc1ccccc1 | > 100 µM (inactive) |  | > 100 µM (inactive) | > 100 µM (inactive) |  | > 100 µM (inactive) | > 100 µM (inactive) | > 100 µM (inactive) | > 100 µM (inactive) | > 100 µM (inactive) | > 100 µM (inactive) | > 100 µM (inactive) | > 100 µM (inactive) | > 100 µM (inactive) | > 100 µM (inactive) |  | 
10 | C1=CC=C2NCCC/N=C3/C=CC=CC=C3NCCC/N=C\2C=C1 | > 100 µM (inactive) | > 100 µM (inactive) | > 100 µM (inactive) | > 100 µM (inactive) |  | > 100 µM (inactive) |  | > 100 µM (inactive) |  | > 100 µM (inactive) | > 100 µM (inactive) |  | > 100 µM (inactive) | > 100 µM (inactive) | > 100 µM (inactive) | > 100 µM (inactive) | 
11 | Cc1cc2c(=O)cc(-c3ccc(Cl)cc3Cl)oc2c(C(=O)O)c1C | > 100 µM (inactive) | > 100 µM (inactive) | > 100 µM (inactive) | > 100 µM (inactive) | > 100 µM (inactive) |  | > 100 µM (inactive) | > 100 µM (inactive) | > 100 µM (inactive) |  | > 100 µM (inactive) | > 100 µM (inactive) | > 100 µM (inactive) | > 100 µM (inactive) | > 100 µM (inactive) | > 100 µM (inactive) | 
12 | CC(=O)Nc1ccc(C(=O)N2N=C(C)/C(=C/c3cccc([N+](=O)[O-])c3)C2=O)cc1 | > 100 µM (inactive) | > 100 µM (inactive) | > 100 µM (inactive) | > 100 µM (inactive) |  | > 100 µM (inactive) | > 100 µM (inactive) |  | > 100 µM (inactive) |  | > 100 µM (inactive) | > 100 µM (inactive) | > 100 µM (inactive) | > 100 µM (inactive) | > 100 µM (inactive) | > 100 µM (inactive) | > 100 µM (inactive)
13 | C=C(C=O)CCCC(C)[C@@H]1CCC23CC12CCC1[C@@]2(C)CCC(OC(C)=O)C(C)(C)C2CC(OC2OC(COC(C)=O)C(O)C(O)C2O)[C@]13C (stereo partly specified) | 0.809 µM (active) | 5.58 µM (inactive) | 5.68 µM (inactive) | 3.39 µM (inactive) | 5.6 µM (inactive) | 7.53 µM (inactive) | 2 µM (inactive) | 1.08 µM (active) | 5.7 µM (inactive) | 6.22 µM (inactive) | 5.43 µM (inactive) | 5.25 µM (inactive) | 7.82 µM (inactive) | 0.807 µM (active) | 4.51 µM (inactive) | 6.43 µM (inactive) | 
14 | O=C(O)CCCNS(=O)(=O)c1ccccc1 |  | > 100 µM (inactive) | > 100 µM (inactive) | > 100 µM (inactive) | > 100 µM (inactive) | > 100 µM (inactive) | > 100 µM (inactive) | > 100 µM (inactive) | > 100 µM (inactive) | > 100 µM (inactive) | > 100 µM (inactive) | > 100 µM (inactive) | > 100 µM (inactive) | > 100 µM (inactive) | > 100 µM (inactive) | > 100 µM (inactive) | 
